Where a SMILES comes first, the peptide text is derived from it. [ ]: non-standard residue; d: D form. ξ: configuration not given here. Ile(3ξ) = CCC(C)[C@H](N)C(=O)O; Thr(3ξ) = CC(O)[C@H](N)C(=O)O
Target: Caspase-8 (Homo sapiens, UniProt Q14790)
Assay: Enzyme Inhibition Assay
Procedure: The caspase enzymatic activity was determined by measuring the accumulation of a fluorogenic product. All assays were prepared in 96-well format. Recombinant caspase enzyme was first assayed to determine the optimal concentration for each experiment. Peptide inhibitors with known IC50 values were tested together with the compounds as a control for each caspase assay. […] Compounds were tested in duplicate and IC50 curves were calculated for all inhibitors assayed.

Caspase-8, sequence (Q14790 217-374 limits assumed): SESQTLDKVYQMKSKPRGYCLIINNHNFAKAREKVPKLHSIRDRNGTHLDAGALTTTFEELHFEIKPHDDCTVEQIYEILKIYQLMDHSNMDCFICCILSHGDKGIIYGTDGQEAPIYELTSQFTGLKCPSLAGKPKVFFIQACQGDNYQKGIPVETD
Caspase-8, sequence (Q14790 385-479 limits assumed): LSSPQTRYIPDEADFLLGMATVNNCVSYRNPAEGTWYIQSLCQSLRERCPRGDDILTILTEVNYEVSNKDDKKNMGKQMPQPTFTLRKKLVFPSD

- IC50: 4.2 nM
Structure (SMILES): CCC(C)[C@H](NC(C)=O)C(=O)N[C@@H](CCC(=O)O)C(=O)N[C@H](C(=O)N[C@H](C=O)CC(=O)O)C(C)O (stereo partly drawn) [(4S)-4-{[(1S)-1-{[(2S)-1-carboxy-3-oxopropan-2-yl]carbamoyl}-2-hydroxypropyl]carbamoyl}-4-[(2S)-2-acetamido-3-methylpentanamido]butanoic acid] (Ac-[Ile(3ξ)]E[Thr(3ξ)]D-aldehyde)
